Patent US20130059783A1, “COMPOSITIONS AND METHODS FOR EXPANDING BFU-E CELLS” (priority 2010, published 2013)

Legend:
BFU-E cells [1] = assay: CFU-E and BFU-E colony forming assays of BFU-E cells cultured in SFELE medium; format: cell-based, mouse; conditions: for Total colony numbers from 1,000 "BFU-E" cells: CFU-E 1 cluster / Total colony numbers from 1,000 "BFU-E" cells: large BFU-E >20 clusters / Total colony numbers from 1,000 "BFU-E" cells: small BFU-E 5-20 clusters: CD24 and CD71 10% low BFU-E cells, SFELE, 100 nM Dex and/or 333 μM DMOG
Description: Dexamethasone prevents BFU-E cell exhaustion, which allows more CFU-E cells to be formed. […] (A) The total number of cells formed from 1000 BFU-E cells at different time points. […] Standard deviation between four separate biological experiments is shown in parenthesis (n/d=not determined).
At daily intervals colony assays were performed (Table 2). As in the experiment in FIG. 3, for the first three days the total number of cells increased at the same rate in all cultures.
(§1) Colonies were scored after 3 days. […] The number of hemoglobinized early BFU-E and late BFU-E colonies was determined after 8-9 days following staining with 2,7-Diaminofluorene (Sigma Chemical, St. Louis, Mo.).

[2] = system: human peripheral blood erythroid progenitors; assay: Erythroblast formation from human mobilized peripheral blood CD34+ cells; format: cell-based; conditions: 100 μM DMOG with 1 nM Dex, human CD34+ derived progenitors
Description: FIG. 6. […] Human mobilized CD34+ cells were first thawed and cultured in serum free medium supplemented with StemSpan® CC100 cytokine mix containing rhSCF, rhFlt-3L, rhIL-3 and rhIL-6 for 5 days. […] Total cell number was counted every other day until cell numbers dropped at day 5+19. More than 95% of cells at the end of the culture have erythroblast morphology (data not shown). […] Error bars show one standard deviation.
An experiment was performed on human hematopoietic progenitor cells from mobilized peripheral blood CD34+ cells that were first cultured 5 days in serum-free medium containing rhSCF, rhFlt-3L, rhIL-3 and rhIL-6. […] Similarly to the murine cultures >95% of cells at the end of the culture are erythroblasts (data not shown).

[3] = system: Lin-Sca-1-c-kit+ bone marrow progenitor population; assay: SFELE culture of Lin neg, c-kit pos, Sca-1 neg bone marrow cells; format: cell-based, mouse; conditions: for Enhancement of proliferation by DMOG above the effect of Dex: bone marrow cells, 333 μM DMOG
Text: FIGS. 5A-5C. […] Total cell number was counted daily and normalized to the number of cells added to the culture. (n=4). Error bars show one standard deviation.
In the bone marrow BFU-E cells are found in the Lin^neg, c-kit^pos, Sca-1^neg fraction; this cell population contains mostly a mix of lineage restricted progenitor cells of which a minority are BFU-Es (Pronk et al., 2007).

CFU-E cells = assay: SFELE progenitor growth assay of sorted CFU-E cells; format: cell-based, mouse; conditions: CD71 and CD24a 20% high cells, 100 nM Dex and/or 333 μM DMOG
Description: (§2) FIGS. 1A-1F. […] Error bars show one standard deviation. […] Error bars show one standard deviation. […] Shown is the fraction of c-kit+ cells after 72 hours. […] Cell numbers in each clone were estimated under the microscope on Day 8.
(§3) FIGS. 3A-3B. […] The experimental protocol was similar to that used in FIGS. 1A and B except that the CFU-E and BFU-E cells were purer (CD71 and CD24a^20% high and CD71 and CD24a^10% low, respectively). […] (A) Proliferation of sorted CFU-E cells. […] Error bars show one standard deviation. (B) Proliferation of sorted BFU-E cells. […] Error bars show one standard deviation.
(§4) We developed a modified version of the serum free erythroid liquid expansion culture (SFELE) medium described by Dolzning et al. (Dolznig et al., 2006).

BFU-E cells [4] = assay: Colony forming assays of sorted BFU-E fractions (Table S2); format: cell-based, mouse; conditions: CD71/CD24a 10% low cells, 100 nM Dex and/or 333 μM DMOG
Text: Separation of BFU-E and CFU-E cells by expression of CD71, CD24a or both CD71 and CD24a. C-kit positive BFU-E and CFU-E cells were sorted from FLEP cells based on expression of CD71, CD24a or both CD71 and CD24a. In all experiments the BFU-E fraction was the subset of c-kit^positive FLEP cells with the 10% lowest expression of CD71 and/or CD24a, while the CFU-E fraction was the subset with 20% highest expression of CD71 and/or CD24a. Sorted BFU-E and CFU-E populations were subjected to colony forming assays under two different conditions. […] The number of CFU-E colonies (±standard deviation) is shown. The sorted “BFU-E” populations mostly formed small CFU-E clusters rather than single CFU-E colonies in these assays. These CFU-E clusters are formed by precursors to CFU-Es and were scored separately as multi-CFU-Es. The number of “multi-CFU-Es” is not shown since these cells likely represent the same cells as those forming small BFU-E colonies.
The potential of the sorted cells to form large BFU-E, small BFU-E, CFU-G/M/Mk, and CFU-GEMM colonies (±standard deviation) was determined by a second assay in methyl cellulose containing 10U Epo, 20 nM IL-3, 20 nM IL-6 and 50 nM SCF per mL, and was scored at day 8-9. […] To determine the effect of DMOG, colony assays of sorted BFU-E (CD71 and CD24a^10% low) cells were also performed in the presence of 333 μM DMOG. In agreement with the finding that DMOG enhances BFU-E self-renewal BFU-E colonies were larger with a more immature appearance in the presence of DMOG and Dex. Therefore, in the presence of DMOG and Dex most BFU-E colonies were scored as “large BFU-Es.”
No GEMM colonies were formed (Table S2).
as §1

BFU-E cells [5] = assay: Serum free erythroid liquid expansion (SFELE) progenitor growth assay of sorted BFU-E cells; format: cell-based, mouse
Description: as §2, §3
FIG. 4. […] Cells were counted from day 4 until the day cell counts dropped.
(A) The total number of cells formed from 1000 BFU-E cells at different time points. […] Standard deviation between four separate biological experiments is shown in parenthesis (n/d=not determined).
as §4

FIH = FIH (Homo sapiens, UniProt Q9NWT6); conditions: cited from earlier work
HIF prolyl hydroxylase = conditions: cited from earlier work
[6] = 333 μM DMOG and/or 100 nM Dex versus no additions
[7] = Day 3 of culture, 100 nM Dex or 333 μM DMOG alone

FIH, sequence (Q9NWT6 whole entry): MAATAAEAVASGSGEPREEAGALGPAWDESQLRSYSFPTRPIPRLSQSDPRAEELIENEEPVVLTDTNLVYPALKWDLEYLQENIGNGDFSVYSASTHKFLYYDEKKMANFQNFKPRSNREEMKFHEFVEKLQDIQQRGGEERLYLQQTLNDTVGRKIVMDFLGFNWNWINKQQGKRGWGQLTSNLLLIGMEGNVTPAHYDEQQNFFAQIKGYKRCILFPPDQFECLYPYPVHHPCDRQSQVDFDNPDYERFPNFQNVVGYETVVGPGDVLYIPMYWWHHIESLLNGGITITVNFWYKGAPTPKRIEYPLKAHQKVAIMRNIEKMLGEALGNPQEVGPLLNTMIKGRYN

COC(=O)CNC(=O)C(=O)OC [DMOG, dimethyloxalylglycine]
Relative increase in CFU-E output per BFU-E (BFU-E cells [1]; [6]): 2.1 fold
Total colony numbers from 1,000 "BFU-E" cells: CFU-E 1 cluster (BFU-E cells [1]; day 0 (before culture)): 30 (±11)
Total colony numbers from 1,000 "BFU-E" cells: large BFU-E >20 clusters (BFU-E cells [1]; day 0 (before culture)): 423 (±31)
Total colony numbers from 1,000 "BFU-E" cells: small BFU-E 5-20 clusters (BFU-E cells [1]; day 0 (before culture)): 262 (±64)
Total colony numbers from 1,000 "BFU-E" cells: CFU-E 1 cluster (BFU-E cells [1]; day 1): 637 (±227)
Total colony numbers from 1,000 "BFU-E" cells: large BFU-E >20 clusters (BFU-E cells [1]; day 1): 428 (±72)
Total colony numbers from 1,000 "BFU-E" cells: small BFU-E 5-20 clusters (BFU-E cells [1]; day 1): 1,284 (±683)
Total colony numbers from 1,000 "BFU-E" cells: CFU-E 1 cluster (BFU-E cells [1]; day 2): 6,991 (±1,226)
Total colony numbers from 1,000 "BFU-E" cells: large BFU-E >20 clusters (BFU-E cells [1]; day 2): 217 (±33)
Total colony numbers from 1,000 "BFU-E" cells: small BFU-E 5-20 clusters (BFU-E cells [1]; day 2): 3,232 (±1,416)
Total colony numbers from 1,000 "BFU-E" cells: CFU-E 1 cluster (BFU-E cells [1]; day 3): 23,685 (±5,919)
Total colony numbers from 1,000 "BFU-E" cells: large BFU-E >20 clusters (BFU-E cells [1]; day 3): 156 (±69)
Total colony numbers from 1,000 "BFU-E" cells: small BFU-E 5-20 clusters (BFU-E cells [1]; day 3): 4,399 (±2,039)
Total colony numbers from 1,000 "BFU-E" cells: CFU-E 1 cluster (BFU-E cells [1]; day 4): 27,530 (±13,756)
Total colony numbers from 1,000 "BFU-E" cells: CFU-E 1 cluster (BFU-E cells [1]; day 5): 26,730 (±9,557)
Total colony numbers from 1,000 "BFU-E" cells: large BFU-E >20 clusters (BFU-E cells [1]; day 5): 0
Total colony numbers from 1,000 "BFU-E" cells: small BFU-E 5-20 clusters (BFU-E cells [1]; day 5): 1,000 (±365)
Total colony numbers from 1,000 "BFU-E" cells: CFU-E 1 cluster (BFU-E cells [1]; day 6): 9,598 (±8,627)
BFU-Es per plated BFU-E (BFU-E cells [1]; [7]): 4.8
CFU-Es per plated BFU-E (BFU-E cells [1]; [7]): 24
Erythroblasts formed relative to cultures with Dex alone [2]: ~10 times
Effect on proliferation of bone marrow cells ([3]; 333 μM DMOG alone, 1 nM and 100 nM Dex): little if any effect
Enhancement of proliferation by DMOG above the effect of Dex ([3]; 1 nM Dex): 2.1 fold
Enhancement of proliferation by DMOG above the effect of Dex ([3]; 10 nM Dex (so in the source)): 2.4 fold
Increase of proliferation of sorted CFU-E cells (CFU-E cells): do not significantly increase proliferation
CFU-E colonies (BFU-E cells [4]): 21 (±11) colonies per 1000 plated cells
CFU-G/M/Meg colonies (BFU-E cells [4]): 5 (±6) colonies per 1000 plated cells
GEMM colonies (BFU-E cells [4]): 0 colonies per 1000 plated cells
large BFU-E colonies (BFU-E cells [4]): 164 (±23) colonies per 1000 plated cells
small BFU-E colonies (BFU-E cells [4]): 243 (±30) colonies per 1000 plated cells
Relative increase in total erythroblast output per BFU-E (BFU-E cells [5]; [6]): 2.5 fold
Enhancement of BFU-E proliferation by DMOG (BFU-E cells [5]; 333 μM DMOG with 10 nM Dex): 10 fold
Increase by DMOG of BFU-E proliferation in the presence of Dex (BFU-E cells [5]; 333 μM DMOG with 100 nM Dex versus Dex alone): 7.3 fold
Increase of total number of cells after the first three days (BFU-E cells [5]; CD24 and CD71 10% low BFU-E cells, 100 nM Dex and/or 333 μM DMOG): remained constant
Total cell expansion from 1000 "BFU-E" cells, liquid culture (BFU-E cells [5]; CD24 and CD71 10% low BFU-E cells, SFELE, 100 nM Dex and/or 333 μM DMOG, day 1): 4,200
Total cell expansion from 1000 "BFU-E" cells, liquid culture (BFU-E cells [5]; CD24 and CD71 10% low BFU-E cells, SFELE, 100 nM Dex and/or 333 μM DMOG, day 2): 26,000
Total cell expansion from 1000 "BFU-E" cells, liquid culture (BFU-E cells [5]; CD24 and CD71 10% low BFU-E cells, SFELE, 100 nM Dex and/or 333 μM DMOG, day 3): 130,000
Total cell expansion from 1000 "BFU-E" cells, liquid culture (BFU-E cells [5]; CD24 and CD71 10% low BFU-E cells, SFELE, 100 nM Dex and/or 333 μM DMOG, day 4): 430,000
Total cell expansion from 1000 "BFU-E" cells, liquid culture (BFU-E cells [5]; CD24 and CD71 10% low BFU-E cells, SFELE, 100 nM Dex and/or 333 μM DMOG, day 5): 820,000
Total cell expansion from 1000 "BFU-E" cells, liquid culture (BFU-E cells [5]; CD24 and CD71 10% low BFU-E cells, SFELE, 100 nM Dex and/or 333 μM DMOG, day 6): 890,000
Total cell expansion from 1000 "BFU-E" cells, liquid culture (BFU-E cells [5]; CD24 and CD71 10% low BFU-E cells, SFELE, 100 nM Dex and/or 333 μM DMOG, day 7): 1,200,000
Total cell expansion from 1000 "BFU-E" cells, liquid culture (BFU-E cells [5]; CD24 and CD71 10% low BFU-E cells, SFELE, 100 nM Dex and/or 333 μM DMOG, day 8): 1,200,000
Increase of proliferation of sorted BFU-E cells (BFU-E cells [5]; CD71 and CD24a 10% low cells, SFELE, 100 nM Dex and/or 333 μM DMOG, versus no additions): 2 fold

O=C(O)C(=O)N[C@H](Cc1ccccc1)C(=O)O [N-oxalyl-d-phenylalanine]
Inhibition of FIH (FIH): inhibit the FIH
Inhibition of a HIF prolyl hydroxylase (HIF prolyl hydroxylase): not a HIF prolyl hydroxylase
